Measurements published in PubChem BioAssay AID248 (DTP/NCI, 2004).
Several values for one entry are separate records, joined by “and”; a condition that tells them apart may be missing. Equal entries are not always repeated. Toxic doses and inconclusive results are not listed.

Tested on: L1210 leukemia ip in BDF1 mice, survival T/C
Experiment: NCI In Vivo Anticancer Drug Screen. Data for tumor model L1210 Leukemia (intraperitoneal) in B6D2F1 (BDF1) mice
Conditions: endpoint: mean survival time, higher = longer survival
How it was run: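 In this screen, tumor-bearing mice given compound are compared to those given vehicle, and their survival values are reported as a treated-to-control quotient.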

[1] = dose: 100.0 mg/kg/injection, schedule: Q01DX005 (ip), vehicle: saline
[2] = dose: 200.0 mg/kg/injection, schedule: Q01DX005 (ip), vehicle: saline
[3] = dose: 25.0 mg/kg/injection, schedule: Q01DX009 (ip), vehicle: saline
[4] = dose: 50.0 mg/kg/injection, schedule: Q01DX009 (ip), vehicle: saline
[5] = dose: 100.0 mg/kg/injection, schedule: Q01DX009 (ip), vehicle: saline
[6] = dose: 100.0 mg/kg/injection, schedule: Q01DX009 (ip), vehicle: saline with Tween-80
[7] = dose: 100.0 mg/kg/injection, schedule: Q04DX003 (ip), vehicle: saline with Tween-80
[8] = dose: 200.0 mg/kg/injection, schedule: Q01DX009 (ip), vehicle: saline with Tween-80
[9] = dose: 200.0 mg/kg/injection, schedule: Q04DX003 (ip), vehicle: saline with Tween-80
[10] = dose: 400.0 mg/kg/injection, schedule: Q01DX009 (ip), vehicle: saline with Tween-80
[11] = dose: 400.0 mg/kg/injection, schedule: Q04DX003 (ip), vehicle: saline with Tween-80
[12] = dose: 100.0 mg/kg/injection, schedule: Q04DX002 (ip), vehicle: Klucel (hydroxypropylcellulose) (HPC)
[13] = dose: 200.0 mg/kg/injection, schedule: Q04DX002 (ip), vehicle: Klucel (hydroxypropylcellulose) (HPC)

SMILES: CN(C)c1ccc(/C=C/c2ccc3ccccc3[n+]2C)cc1
- T/C (dose: 1.5 mg/kg/injection, schedule: Q01DX009 (ip), vehicle: Klucel (hydroxypropylcellulose) (HPC)): 103 % of control
- T/C (dose: 3.0 mg/kg/injection, schedule: Q01DX009 (ip), vehicle: Klucel (hydroxypropylcellulose) (HPC)): 97 % of control
- T/C (dose: 3.12 mg/kg/injection, schedule: Q01DX009 (ip), vehicle: Klucel (hydroxypropylcellulose) (HPC)): 100 % of control
- T/C (dose: 6.0 mg/kg/injection, schedule: Q04DX003 (ip), vehicle: Klucel (hydroxypropylcellulose) (HPC)): 107 % of control
- T/C (dose: 6.25 mg/kg/injection, schedule: Q01DX009 (ip), vehicle: Klucel (hydroxypropylcellulose) (HPC)): 104 % of control
- T/C (dose: 12.0 mg/kg/injection, schedule: Q04DX003 (ip), vehicle: Klucel (hydroxypropylcellulose) (HPC)): 107 % of control
- T/C (dose: 12.5 mg/kg/injection, schedule: Q01DX009 (ip), vehicle: Klucel (hydroxypropylcellulose) (HPC)): 107 % of control
- T/C (dose: 25.0 mg/kg/injection, schedule: Q01DX009 (ip), vehicle: Klucel (hydroxypropylcellulose) (HPC)): 96 % of control
- T/C (dose: 25.0 mg/kg/injection, schedule: Q04DX003 (ip), vehicle: Klucel (hydroxypropylcellulose) (HPC)): 86 % of control
- T/C (dose: 100.0 mg/kg/injection, schedule: Q01DX001 (ip), vehicle: saline): 112 % of control
- T/C (dose: 200.0 mg/kg/injection, schedule: Q01DX001 (ip), vehicle: saline): 121 % of control

SMILES: CC1(C)OC2C(C(=O)NO)OC(n3cnc4c(N)ncnc43)C2O1 (centres undefined)
- T/C [1]: 101 % of control
- T/C [2]: 101 % of control

SMILES: Cc1ccc(S(=O)(=O)OC2CCN(C)CC2)cc1
- T/C (dose: 6.0 mg/kg/injection, schedule: Q01DX009 (ip), vehicle: saline): 91 % of control
- T/C (dose: 12.0 mg/kg/injection, schedule: Q01DX009 (ip), vehicle: saline): 93 % of control
- T/C (dose: 12.0 mg/kg/injection, schedule: Q04DX003 (ip), vehicle: saline): 102 % of control
- T/C (dose: 25.0 mg/kg/injection, schedule: Q01DX005 (ip), vehicle: saline): 97 % of control
- T/C [3]: 93 % of control and 94 % of control
- T/C (dose: 25.0 mg/kg/injection, schedule: Q04DX003 (ip), vehicle: saline): 96 % of control
- T/C (dose: 50.0 mg/kg/injection, schedule: Q01DX005 (ip), vehicle: saline): 97 % of control
- T/C [4]: 96 % of control
- T/C [1]: 97 % of control and 99 % of control
- T/C [5]: 112 % of control

SMILES: c1ccc2c[n+]3cc4ccccc4cc3cc2c1
- T/C (dose: 6.25 mg/kg/injection, schedule: Q01DX009 (ip), vehicle: saline): 101 % of control
- T/C (dose: 12.5 mg/kg/injection, schedule: Q01DX009 (ip), vehicle: saline): 104 % of control
- T/C [3]: 104 % of control
- T/C (dose: 35.0 mg/kg/injection, schedule: Q01DX009 (ip), vehicle: saline): 95 % of control

SMILES: CC1(C)N=C(N)N=C(N)N1c1cccc(C#N)c1
- T/C (dose: 7.0 mg/kg/injection, schedule: Q01DX009 (ip), vehicle: saline): 118 % of control
- T/C (dose: 10.0 mg/kg/injection, schedule: Q01DX009 (ip), vehicle: saline): 116 % of control
- T/C (dose: 16.0 mg/kg/injection, schedule: Q01DX009 (ip), vehicle: saline): 113 % of control
- T/C (dose: 17.0 mg/kg/injection, schedule: Q01DX009 (ip), vehicle: saline): 108 % of control
- T/C [3]: 123 % of control
- T/C (dose: 37.0 mg/kg/injection, schedule: Q01DX009 (ip), vehicle: saline): 151 % of control and 161 % of control
- T/C (dose: 37.5 mg/kg/injection, schedule: Q01DX009 (ip), vehicle: saline): 120 % of control
- T/C (dose: 56.0 mg/kg/injection, schedule: Q01DX009 (ip), vehicle: saline): 172 % of control
- T/C (dose: 84.5 mg/kg/injection, schedule: Q01DX009 (ip), vehicle: saline): 150 % of control

SMILES: C=C(Br)CNC(=O)Nc1cccc2c1CCCC2
- T/C [6]: 94 % of control
- T/C [7]: 86 % of control
- T/C [8]: 97 % of control
- T/C [9]: 86 % of control
- T/C [10]: 92 % of control
- T/C [11]: 88 % of control

SMILES: O=[N+]([O-])c1ccc(S(=O)(=O)OCc2cccc(OS(=O)(=O)c3ccc([N+](=O)[O-])cc3)c2)cc1
- T/C (dose: 100.0 mg/kg/injection, schedule: Q01DX001 (ip), vehicle: saline with Tween-80): 100 % of control
- T/C (dose: 100.0 mg/kg/injection, schedule: Q01DX009 (ip), vehicle: Klucel (hydroxypropylcellulose) (HPC)): 94 % of control
- T/C (dose: 100.0 mg/kg/injection, schedule: Q04DX003 (ip), vehicle: Klucel (hydroxypropylcellulose) (HPC)): 100 % of control
- T/C (dose: 200.0 mg/kg/injection, schedule: Q01DX001 (ip), vehicle: saline with Tween-80): 104 % of control
- T/C (dose: 200.0 mg/kg/injection, schedule: Q01DX009 (ip), vehicle: Klucel (hydroxypropylcellulose) (HPC)): 93 % of control
- T/C (dose: 200.0 mg/kg/injection, schedule: Q04DX003 (ip), vehicle: Klucel (hydroxypropylcellulose) (HPC)): 95 % of control
- T/C (dose: 400.0 mg/kg/injection, schedule: Q01DX001 (ip), vehicle: saline with Tween-80): 102 % of control
- T/C (dose: 400.0 mg/kg/injection, schedule: Q01DX009 (ip), vehicle: Klucel (hydroxypropylcellulose) (HPC)): 107 % of control
- T/C (dose: 400.0 mg/kg/injection, schedule: Q04DX003 (ip), vehicle: Klucel (hydroxypropylcellulose) (HPC)): 102 % of control

SMILES: Nc1c(Cl)cc(Cl)c(-c2c(Cl)cc(Cl)c([N+](=O)[O-])c2Cl)c1Cl
- T/C (dose: 100.0 mg/kg/injection, schedule: Q01DX001 (ip), vehicle: Klucel (hydroxypropylcellulose) (HPC)): 106 % of control
- T/C (dose: 200.0 mg/kg/injection, schedule: Q01DX001 (ip), vehicle: Klucel (hydroxypropylcellulose) (HPC)): 101 % of control
- T/C (dose: 400.0 mg/kg/injection, schedule: Q01DX001 (ip), vehicle: Klucel (hydroxypropylcellulose) (HPC)): 95 % of control

SMILES: CC(=O)N(CC(=O)O)c1ccccc1
- T/C [7]: 101 % of control
- T/C [9]: 103 % of control
- T/C [11]: 98 % of control

SMILES: CC(=O)OCC1OC(Sc2ncc3cnccn23)C(OC(C)=O)C(OC(C)=O)C1OC(C)=O (centres undefined)
- T/C [1]: 88 % of control
- T/C [2]: 93 % of control

SMILES: O=C(O)c1cc(O)c(O)cc1O
- T/C (dose: 100.0 mg/kg/injection, schedule: Q01DX001 (ip), vehicle: carboxymethylcellulose (CMC)): 98 % of control
- T/C (dose: 200.0 mg/kg/injection, schedule: Q01DX001 (ip), vehicle: carboxymethylcellulose (CMC)): 108 % of control
- T/C (dose: 400.0 mg/kg/injection, schedule: Q01DX001 (ip), vehicle: carboxymethylcellulose (CMC)): 92 % of control

SMILES: NNC(=O)CNc1ccc(F)cc1Br
- T/C [12]: 101 % of control
- T/C [13]: 101 % of control

SMILES: CN(C)CC1C2C=CC(C2)C1CN(C)C (centres undefined)
- T/C (dose: 100.0 mg/kg/injection, schedule: Q04DX003 (ip), vehicle: saline): 96 % of control
- T/C (dose: 200.0 mg/kg/injection, schedule: Q04DX003 (ip), vehicle: saline): 91 % of control

SMILES: COc1ccc(Cl)cc1NC(=O)Oc1ccc(-c2ccccc2)cc1Cl
- T/C [6]: 99 % of control
- T/C [8]: 92 % of control
- T/C [10]: 91 % of control

SMILES: Cc1cccc(OCC(O)CN2CCCCC2)c1 (centres undefined)
- T/C [3]: 94 % of control
- T/C [4]: 102 % of control and 105 % of control
- T/C [5]: 120 % of control

SMILES: Cc1cc(C)cc(OCC#CCN(C)c2ccccc2)c1
- T/C [12]: 99 % of control
- T/C [13]: 99 % of control
- T/C (dose: 400.0 mg/kg/injection, schedule: Q04DX002 (ip), vehicle: Klucel (hydroxypropylcellulose) (HPC)): 96 % of control

SMILES: Cc1cc(Cl)ccc1NS(=O)(=O)c1ccc(Br)cc1
- T/C [6]: 97 % of control
- T/C [7]: 102 % of control
- T/C [8]: 98 % of control
- T/C [9]: 100 % of control
- T/C [10]: 93 % of control
- T/C [11]: 96 % of control

SMILES: O=C(O)C(=O)c1ccccc1NC(=O)c1ccc(Cl)cc1
- T/C (dose: 50.0 mg/kg/injection, schedule: Q04DX002 (ip), vehicle: Klucel (hydroxypropylcellulose) (HPC)): 101 % of control
- T/C [12]: 93 % of control
- T/C [13]: 93 % of control
